Values joined by “and” are separate entries in the source; they are usually repeats but may differ in a detail not shown here. Equal entries are not always repeated.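 Where inhibition never reached the appropriate level, the endpoint shown equals the highest concentration tested. Otherwise, values were interpolated linearly from a five-concentration, 48-hour dose response in 96-well plates. The concentration for 50% growth inhibition is given as GI50. TGI: concentration producing complete growth inhibition.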
What was measured:
Assay in all cases: NCI tumour cell line growth inhibition, 48 h
SNB-78 CNS = test system: SNB-78 CNS
XF 498 CNS = test system: XF 498 CNS
CAKI-1 renal = test system: CAKI-1 renal
M19-MEL melanoma = test system: M19-MEL melanoma
DMS 273 small cell lung = test system: DMS 273 small cell lung
DLD-1 colon = test system: DLD-1 colon
DMS 114 small cell lung = test system: DMS 114 small cell lung
KM20L2 colon = test system: KM20L2 colon
LXFL 529 NSCLC = test system: LXFL 529 NSCLC
HOP-18 NSCLC = test system: HOP-18 NSCLC
RXF-631 renal = test system: RXF-631 renal

CCOC(=O)c1ccn2c(c1)c(C#N)c1nc3ccccc3nc12
TGI (SNB-78 CNS): 57.6 µM | TGI (XF 498 CNS): 93.3 µM | TGI (CAKI-1 renal): > 100 µM | TGI (M19-MEL melanoma): > 100 µM | TGI (DMS 273 small cell lung): > 100 µM | TGI (DLD-1 colon): > 100 µM | TGI (DMS 114 small cell lung): > 100 µM | TGI (KM20L2 colon): > 100 µM | TGI (LXFL 529 NSCLC): > 100 µM

COC(=O)[C@@H]1[C@H]2CC[C@]3(C)[C@@H](OC(C)=O)CC[C@H]3[C@@H]2CC[C@H]1C(C)=O
TGI (CAKI-1 renal): > 100 µM

C[C@H]1S[C@H](c2c(F)cccc2F)n2c1nc1ccccc12
TGI (CAKI-1 renal): > 100 µM

O=C(O)CCC(NC(=O)c1ccc(CNc2nc3cc(C(F)(F)F)ccc3nc2C(=O)O)cc1)C(=O)O (stereo not given)
TGI (CAKI-1 renal): > 100 µM

COC1(C)CNCC(C)(C)NC(=O)C(C)(OC)CNCC(C)(C)NC1=O (stereo not given)
TGI (SNB-78 CNS): > 100 µM | TGI (CAKI-1 renal): > 100 µM | TGI (HOP-18 NSCLC): > 100 µM | TGI (M19-MEL melanoma): > 100 µM | TGI (DMS 273 small cell lung): > 100 µM | TGI (DLD-1 colon): > 100 µM | TGI (DMS 114 small cell lung): > 100 µM | TGI (KM20L2 colon): > 100 µM | TGI (LXFL 529 NSCLC): > 100 µM | TGI (RXF-631 renal): > 100 µM

O=C(CCN1CCCC1)c1ccc(Oc2ccc(F)cc2)cc1
TGI (CAKI-1 renal): 30.1 µM

c1cc2c3ccsc3c3sccc3c2s1
TGI (CAKI-1 renal): > 100 µM

COc1ccc(NC(=O)NNS(=O)(=O)c2ccc(C)cc2)cc1
TGI (CAKI-1 renal): > 100 µM

COc1ccc2[nH]c3c(O)c(-c4c(C)cc5c([nH]c6ccc(OC)cc65)c4O)c(C)cc3c2c1
GI50 (CAKI-1 renal): 4.27 µM | TGI (CAKI-1 renal): 8.39 µM

CC[C@]1(Cc2ccc(OC)c(OC)c2)C=[N+]([O-])O[C@H](OCc2ccccc2)[C@@H]1OC(C)=O
TGI (CAKI-1 renal): 80.9 µM

COC(=O)CNC(=O)CSc1nnc(COc2ccc(Cl)cc2)n1-c1ccccc1
TGI (CAKI-1 renal): 32.2 µM

COc1cc2cnc3c4cc(OC)c(OC(C)C)cc4ccc3c2cc1OC
TGI (SNB-78 CNS): > 100 µM | TGI (CAKI-1 renal): > 100 µM | TGI (HOP-18 NSCLC): > 100 µM | TGI (M19-MEL melanoma): > 100 µM | TGI (DMS 273 small cell lung): > 100 µM | TGI (DLD-1 colon): > 100 µM | TGI (DMS 114 small cell lung): > 100 µM | TGI (KM20L2 colon): > 100 µM | TGI (LXFL 529 NSCLC): > 100 µM | TGI (RXF-631 renal): > 100 µM

CCOc1nc2sc3c(c2c(=O)n1CCSSCCn1c(OCC)nc2sc4c(c2c1=O)CCCC4)CCCC3
TGI (CAKI-1 renal): > 100 µM

COC1C(=O)N(SC)C1c1ccccc1Cl (stereo not given)
TGI (CAKI-1 renal): > 100 µM

COc1cc(/C=N/n2c(C)n[nH]c2=O)cc(OC)c1OC
TGI (CAKI-1 renal): > 100 µM

CCOC(=O)c1csc(-c2cn(C)c3c2C(=O)C(OC)=CC3=O)n1
TGI (CAKI-1 renal): > 100 µM

Cc1ccc(S(=O)(=O)NNC(=O)Nc2ccc([N+](=O)[O-])cc2)cc1
TGI (CAKI-1 renal): > 100 µM

COc1cc(C(=O)OC2CC34CCNC35CC(OC5(OC)C2O)c2cc3c(cc24)OCO3)ccc1O (stereo not given)
TGI (CAKI-1 renal): > 100 µM

Nc1ncc2c(n1)-c1ccccc1OC2N1CCOCC1 (stereo not given)
TGI (CAKI-1 renal): > 100 µM

Cn1c(N)c(/C=C/C(=O)Oc2ccccc2)c(=O)n(C)c1=O
TGI (CAKI-1 renal): 63.8 µM

Cc1ccc2c(c1)CC1(C2)Cc2ccc(C)cc2C1=O (stereo not given)
TGI (CAKI-1 renal): 87.2 µM

Cc1cc(S(=O)(=O)NC2=NCC(C)(C)CN2)c(S)cc1Cl
TGI (CAKI-1 renal): > 100 µM

COc1cc(-c2ccccc2)cn2c1nc1ccccc12
TGI (CAKI-1 renal): 52.3 µM

CN1CCN(Cc2ccccc2)CC1CC#N (stereo not given)
TGI (CAKI-1 renal): > 100 µM

NC(=O)NC(=O)c1cccc(NC(=O)CCl)c1
TGI (CAKI-1 renal): 6 µM

COc1cc(OC)nc(-n2c(N)c(C(=O)O)c3ccc([N+](=O)[O-])cc3c2=O)n1
TGI (CAKI-1 renal): > 100 µM

CN1N=C(c2ccccc2)c2cc(Cl)ccc2N=C1N/N=C/c1ccc(N(C)C)cc1
TGI (CAKI-1 renal): > 100 µM

COC(=O)/C(=N\N)C(C(=O)C(=O)Nc1nc(=S)[nH][nH]1)c1nc2ccc([N+](=O)[O-])cc2[nH]c1=O (stereo not given)
TGI (SNB-78 CNS): > 100 µM | TGI (CAKI-1 renal): > 100 µM | TGI (HOP-18 NSCLC): > 100 µM | TGI (M19-MEL melanoma): > 100 µM | TGI (DMS 273 small cell lung): > 100 µM | TGI (DLD-1 colon): > 100 µM | TGI (DMS 114 small cell lung): > 100 µM | TGI (KM20L2 colon): > 100 µM | TGI (LXFL 529 NSCLC): > 100 µM | TGI (RXF-631 renal): > 100 µM

COc1ccc(C2=NN(C(=O)c3ccc(Cl)cc3)C(O)(c3cc(F)c(Cl)cc3Cl)C2)cc1 (stereo not given)
TGI (CAKI-1 renal): > 100 µM

c1ccc(COC[C@H]2C3OCC([C@H](OCc4ccccc4)[C@H]3OCc3ccccc3)N2Cc2ccccc2)cc1 (stereo not given in full)
TGI (CAKI-1 renal): > 100 µM

COC(=O)C1=COC2OC3CC1C2C(C)O3 (stereo not given)
TGI (CAKI-1 renal): > 100 µM

CC1N=C(c2ccccc2)OC1=O (stereo not given)
TGI (CAKI-1 renal): > 100 µM

CC(=O)OC(C)c1cc2c(s1)C(=O)c1ccsc1C2=O (stereo not given)
TGI (CAKI-1 renal): 2.39 µM

COc1cccc(CCn2c(N)c(C#N)c3ccc([N+](=O)[O-])cc3c2=O)c1
TGI (CAKI-1 renal): > 46.4 µM

COC1OC(Cn2cc([N+](=O)[O-])nc2C)C(O)C(O)C1O (stereo not given)
TGI (CAKI-1 renal): > 100 µM

COc1cc2c(cc1OC)[C@H]1C(COC(=O)Nc3ccccc3)CN1CC2 (stereo not given in full)
TGI (CAKI-1 renal): > 100 µM | TGI (HOP-18 NSCLC): > 100 µM | TGI (M19-MEL melanoma): > 100 µM | TGI (DMS 273 small cell lung): > 100 µM | TGI (DLD-1 colon): > 100 µM | TGI (LXFL 529 NSCLC): > 100 µM

Cc1cc(C)c(C(=O)C(C)C(c2ccccc2)c2ccc(Cl)cc2)c(C)c1 (stereo not given)
TGI (XF 498 CNS): > 100 µM | TGI (CAKI-1 renal): > 100 µM | TGI (HOP-18 NSCLC): > 100 µM | TGI (M19-MEL melanoma): > 100 µM | TGI (DLD-1 colon): > 100 µM | TGI (DMS 114 small cell lung): > 100 µM | GI50 (KM20L2 colon): > 100 µM and 47.2 µM | TGI (KM20L2 colon): > 100 µM | TGI (LXFL 529 NSCLC): > 100 µM | TGI (RXF-631 renal): > 100 µM

Cc1nn(C(=O)c2ccc(Cl)cc2)c2c1C(c1ccc(Cl)cc1)SC(N)=N2 (stereo not given)
TGI (CAKI-1 renal): > 10 µM

O=c1[nH]c(=O)n(C2CC(O)C(COP(=O)(OCC(Cl)(Cl)Cl)OCC(Cl)(Cl)Cl)O2)cc1F (stereo not given)
TGI (CAKI-1 renal): > 100 µM

N[C@H]1CCN(c2c(F)cc3c(=O)c(C(=O)O)cn4c3c2Oc2c-4ccc3c2ccc2ccccc23)C1
TGI (CAKI-1 renal): > 25.5 µM

C[C@]12CC[C@H](O)CC1=CC[C@@H]1[C@@H]2CC[C@]2(C)NC(=O)/C(=C\c3ccccc3)C[C@@H]12
TGI (CAKI-1 renal): 73.1 µM

CCOC(=O)C1=NNC(C(=O)c2ccccc2)C1c1ccccc1 (stereo not given)
TGI (CAKI-1 renal): 3.25 µM

CCOC(=O)c1nc2cc(F)cc(F)c2[nH]c1=O
TGI (CAKI-1 renal): > 100 µM

O=C1NC(N2CCCCC2)=N/C1=C\c1ccco1
TGI (CAKI-1 renal): > 100 µM

CC(C)CC1NC(=O)CCC(NC(=O)C(Cc2ccc(O)cc2)NC(=O)OCc2ccccc2)C(=O)NC(Cc2ccccc2)C(=O)NC(Cc2ccccc2)NC1=O (stereo not given)
TGI (CAKI-1 renal): > 100 µM
